Assay results taken from US10314820B2, “Imidazole-based heterocyclic compounds” (priority 2014, dated 2019).

Legend:
[1] = tested on: Human keratinocytes (HaCaT cells); assay: Human cytotoxicity assay in vitro (CellTiter-Glo), keratinocytes; type: cell-based; settings: keratinocyte cytotoxicity score; 24 h exposure
[2] = tested on: Human hepatocytes (HepaRG cells); assay: Human cytotoxicity assay in vitro (CellTiter-Glo), hepatocytes; type: cell-based; settings: hepatocyte cytotoxicity score; 24 h exposure
[3] = tested on: Escherichia coli TolC mutant strain ΔtolC; type: cell-based; settings: Table BB; MIC score
[4] = tested on: linezolid-resistant Staphylococcus aureus (from MRSA, COL); assay: microbe, parasite or virus in culture; type: cell-based; settings: Table BB; MIC score; linezolid-resistant MRSA
[5] = tested on: vancomycin-resistant Staphylococcus aureus (from MRSA, COL); assay: microbe, parasite or virus in culture; type: cell-based; settings: Table BB; MIC score; vancomycin-resistant MRSA
[6] = tested on: Enterococcus faecium (AGR15, ATCCBAA-2127); assay: Broth microdilution MIC assay, Enterococcus faecium; type: cell-based; settings: Table BB; MIC score
[7] = tested on: moenomycin-resistant Staphylococcus aureus (from MRSA, COL); settings: Table BB, MIC score
[8] = tested on: Staphylococcus aureus MRSA (COL); type: cell-based; settings: Table AA; MIC score
[9] = tested on: Staphylococcus aureus MSSA (Newman); assay: Broth microdilution MIC assay, MSSA; type: cell-based; settings: Table AA; MIC score
[10] = tested on: Streptococcus pneumoniae (Chester, ATCC49619); assay: Broth microdilution MIC assay, Streptococcus pneumoniae; type: cell-based; settings: Table AA; MIC score
[11] = tested on: platensimycin-resistant Staphylococcus aureus (from MRSA, COL); assay: microbe, parasite or virus in culture; type: cell-based; settings: read-out: MIC for the resistant strain
[12] = tested on: MRSA (COL) resistant to triclosan; assay: microbe, parasite or virus in culture; settings: Staphylococcus aureus, read-out: MIC values of resistant strains

SMILES	cytotoxicity cell line K [1]	cytotoxicity cell line H [2]	antibacterial activity MRSA strains with additional resistance to L [4]	antibacterial activity MRSA strains with additional resistance to V [5]	antibacterial activity EFm [6]	antibacterial activity MRSA strains with additional resistance to M [7]	further results
Cc1[nH]c(-c2ccc(-c3ccccc3F)s2)nc1-c1ccccc1 [Compound 15]	1 (compounds causing less than 50% inhibition of cell viability at 50 μM)	1 (compounds not causing a loss of viability at concentrations between 25 and 50 μM)	–	–	–	–	antibacterial activity EC Δ [3]: 1 (the compound has an MIC100 of 20-50 μg/ml or an MIC50 of <10 μg/ml)
Cc1nc(-c2ccc(-c3ccccc3OC(F)(F)F)o2)[nH]c1-c1ccccc1Cl [Compound 19]	0 (compounds not causing loss of cell viability at concentrations of 50 μM or higher)	3	3 (the compound has an MIC100 of 3-10 μg/ml)	1 (the compound has an MIC100 of 20-50 μg/ml or an MIC50 of <10 μg/ml)	–	–	–
Cc1[nH]c(-c2ccc(-c3ccccc3OC(F)(F)F)o2)nc1-c1ccc(F)cc1 [Compound 23, 4-(4-Fluoro-phenyl)-5-methyl-2-[5-(2-trifluoromethoxy-phenyl)-furan-2-yl]-1H-imidazole]	2 (compounds causing>50% inhibition of cell viability at 25 μM)	3	–	–	1 (the compound has an MIC100 of 20-50 μg/ml or an MIC50 of <10 μg/ml)	–	–
Cc1[nH]c(-c2ccc(-c3ccccc3OC(F)(F)F)o2)nc1-c1ccc(Cl)cc1 [Compound 24]	2 (compounds causing>50% inhibition of cell viability at 25 μM)	2	3 (the compound has an MIC100 of 3-10 μg/ml)	4 (the compound has an MIC of 1 μg/ml to 3 μg/ml for preventing bacterial growth 100% (MIC100))	–	3 (the compound has an MIC100 of 3-10 μg/ml)	–
Cc1[nH]c(-c2ccc(-c3ccc(Cl)c(C(F)(F)F)c3)o2)nc1-c1ccc(F)cc1 [Compound 42]	3 (compounds causing more than 50% inhibition of cell viability at 10 μM)	1 (compounds not causing a loss of viability at concentrations between 25 and 50 μM)	4 (the compound has an MIC of 1 μg/ml to 3 μg/ml for preventing bacterial growth 100% (MIC100))	4 (the compound has an MIC of 1 μg/ml to 3 μg/ml for preventing bacterial growth 100% (MIC100))	1 (the compound has an MIC100 of 20-50 μg/ml or an MIC50 of <10 μg/ml)	4 (the compound has an MIC of 1 μg/ml to 3 μg/ml for preventing bacterial growth 100% (MIC100))	–
Cc1nc(-c2ccc(-c3ccc(Cl)c(OC(F)(F)F)c3)o2)[nH]c1-c1ccc(Cl)cc1 [Compound 44]	–	2	–	–	1 (the compound has an MIC100 of 20-50 μg/ml or an MIC50 of <10 μg/ml)	–	–
Cc1[nH]c(-c2ccc(-c3ccc(C(F)(F)F)cc3)o2)nc1-c1ccc(Cl)cc1 [Compound 47]	2 (compounds causing>50% inhibition of cell viability at 25 μM)	1 (compounds not causing a loss of viability at concentrations between 25 and 50 μM)	–	–	1 (the compound has an MIC100 of 20-50 μg/ml or an MIC50 of <10 μg/ml)	–	–
Cc1[nH]c(-c2ccc(-c3ccc(C(F)(F)F)c(Cl)c3)o2)nc1-c1ccc(F)cc1 [Compound 49]	2 (compounds causing>50% inhibition of cell viability at 25 μM)	3	2 (the compound has an MIC100 of 11-20 μg/ml)	3 (the compound has an MIC100 of 3-10 μg/ml)	1 (the compound has an MIC100 of 20-50 μg/ml or an MIC50 of <10 μg/ml)	3 (the compound has an MIC100 of 3-10 μg/ml)	–
Cc1[nH]c(-c2ccc(-c3ccc(OC(F)(F)F)c(Cl)c3)o2)nc1-c1ccc(Cl)cc1 [Compound 50]	1 (compounds causing less than 50% inhibition of cell viability at 50 μM)	1 (compounds not causing a loss of viability at concentrations between 25 and 50 μM)	–	–	–	–	Antibacterial activity Staphylococcus aureus (MRSA) [8]: 2 (the compound has an MIC100 of 11-20 μg/ml); Antibacterial activity Staphylococcus aureus (MSSA) [9]: 3 (the compound has an MIC100 of 3-10 μg/ml); Antibacterial activity Streptococcus pneumoniae [10]: 3 (the compound has an MIC100 of 2-5 μg/ml)
FC(F)(F)Oc1ccccc1-c1ccc(-c2nc(Cl)c(-c3ccccc3)[nH]2)o1 [Compound 64]	3 (compounds causing more than 50% inhibition of cell viability at 10 μM)	3	–	4 (the compound has an MIC of 1 μg/ml to 3 μg/ml for preventing bacterial growth 100% (MIC100))	–	4 (the compound has an MIC of 1 μg/ml to 3 μg/ml for preventing bacterial growth 100% (MIC100))	–
Cc1ccccc1-c1c[nH]c(-c2ccc(-c3ccccc3OC(F)(F)F)o2)n1 [Compound 66]	1 (compounds causing less than 50% inhibition of cell viability at 50 μM)	3	4 (the compound has an MIC of 1 μg/ml to 3 μg/ml for preventing bacterial growth 100% (MIC100))	3 (the compound has an MIC100 of 3-10 μg/ml)	–	3 (the compound has an MIC100 of 3-10 μg/ml)	–
Cc1ccccc1-c1cnc(-c2ccc(-c3ccccc3C(F)(F)F)o2)[nH]1 [Compound 69]	1 (compounds causing less than 50% inhibition of cell viability at 50 μM)	2	–	–	–	–	antibacterial activity EC Δ [3]: 1 (the compound has an MIC100 of 20-50 μg/ml or an MIC50 of <10 μg/ml)
CN(C)Cc1[nH]c(-c2ccc(-c3ccccc3C(F)(F)F)o2)nc1-c1ccccc1 [Compound 70]	2 (compounds causing>50% inhibition of cell viability at 25 μM)	3	1 (the compound has an MIC100 of 20-50 μg/ml or an MIC50 of <10 μg/ml)	1 (the compound has an MIC100 of 20-50 μg/ml or an MIC50 of <10 μg/ml)	2 (the compound has an MIC100 of 11-20 μg/ml)	1 (the compound has an MIC100 of 20-50 μg/ml or an MIC50 of <10 μg/ml)	Antibacterial activity Staphylococcus aureus (MRSA) [8]: 1 (the compound has an MIC100 of 20-50 μg/ml or an MIC50 of <10 μg/ml); Antibacterial activity Staphylococcus aureus (MSSA) [9]: 1 (the compound has an MIC100 of 20-50 μg/ml or an MIC50 of <10 μg/ml); antibacterial activity EC Δ [3]: 3 (the compound has an MIC100 of 3-10 μg/ml); Antibacterial activity Streptococcus pneumoniae [10]: 3 (the compound has an MIC100 of 2-5 μg/ml)
Fc1ccc(-c2ccc(-c3nc4ccccc4[nH]3)o2)cc1 [Compound 121]	–	–	–	–	–	–	Antibacterial activity Staphylococcus aureus (MRSA) [8]: inactive; Antibacterial activity Streptococcus pneumoniae [10]: inactive
Fc1ccc(-c2ccc(-c3nc4ccccc4[nH]3)o2)c(F)c1 [Compound 122]	–	–	–	–	–	–	Antibacterial activity Staphylococcus aureus (MRSA) [8]: inactive; Antibacterial activity Streptococcus pneumoniae [10]: inactive
CC12C[C@@]34C=CC(=O)[C@@](C)(CCC(=O)Nc5c(O)ccc(C(=O)O)c5O)C3[C@H](CC1C4)O2 (some centres unmarked) [platensimycin]	–	–	–	–	–	–	MIC [11]: > 10 µg/mL
Oc1cc(Cl)ccc1Oc1ccc(Cl)cc1Cl [triclosan]	–	–	–	–	–	–	MIC [12]: > 20 µg/mL
